# In US9023810B2, “Use of a compound comprising D-mannoheptulose and/or perseitol for treating and preventing innate immunity modification diseases” (Laboratories Expanscience, priority 2004, dated 2015):
# Several values for one entry are separate records, joined by “and”; a condition that tells them apart may be missing. Equal entries are not always repeated.
# What was measured:
# hBD-2 [1] = test: Induction of hBD-2 in normal human keratinocytes, ELISA on cells related to MTT (Examples 3, 6, 7); format: cell-based; conditions: for production of hBD-2 (in words): Example 7, tested separately, commercial origin; for Modulation of the synthesis of HBD-2 (% increase with respect to control cells): proportions corresponding to 1% of a 5% solution of MS of batch A, i.e. 0.05% MS
# Protocol: The keratinocytes of normal humans were inoculated in a 96 well plaque (about 20000 cells/well), in the presence of a specific medium enriched in calcium (final concentration 1.3 mM), as previously described in the publication “Human β-Defensin-2 production in Keratinocytes is regulated by Interleukin-1, Bacteria, and the State of Differentiation”, Alice Y. Liu et al., The Society for Investigative Dermatology, vol. 118, No. 2, February 2002, pages 275 to 281.
# After an incubation of 24 hours at 37° C., 5% CO2: • 2 rinses with 200 μl/well of PBS (phosphate buffer in saline solution) • stimulation of the cells by 200 μl/well (in a Ca^++ supplemented medium): • by the hydrosoluble extract of sugars of avocado at concentrations of 0.5, 0.05 and 0.005 w/w of dry matter • by IL-1β at a concentration of 100 ng/ml (positive control of induction of hBD-2) III. End of Treatment (J2): ELISA
# After 24 hours of incubation, the induction of the hBD-2 was evaluated by an ELISA method with a specific antibody (goat polyclonal to human BD2; Abcam; ab9871). The results obtained with the hydrosoluble extract of sugars of avocado, batch A, comprising 40% of D-mannoheptulose and 40% perseitol, based on the dry weight, are summarised in Table 8 below:
# The same test as in example 3 was carried out with: • a mixture of fructose (5%), glucose (5%) and saccharose (3%); • D-mannoheptulose (40%); • perseitol (40%); • a mixture of fructose (5%), glucose (5%) saccharose (3%) and D-mannoheptulose (40%); • a mixture of fructose (5%), glucose (5%) saccharose (3%) and perseitol (40%); • a mixture of fructose (5%), glucose (5%) saccharose (3%) D-mannoheptulose (40%) and perseitol (40%); and • an extract of avocado sugars (batch A).
# The same test as in example 3 was carried out with commercially available D-mannoheptulose and perseitol.
# hBD-2 [2] = test: Expression of hBD-2 modulated by IL-4 in keratinocytes, in vitro modelling of atopic dermatitis; format: cell-based, human
# Protocol: The keratinocytes of normal humans were inoculated as described in example 3.
# After 24 hours of incubation at 37° C., 5% of CO2, the culture medium was eliminated and the cellular carpet was rinsed twice with PBS. The cells were then treated for 24 hours under the conditions defined below: • Control cells: medium only • IL-1β at 100 ng/ml (positive control for induction of hBD-2) • IL-4 at 50 ng/ml • Hydrosoluble extract of sugars of avocado (batch A) at 0.5% w/w of dry matter • IL-1β at 100 ng/ml and IL-4 at 50 ng/ml • IL-4 at 50 ng/ml and hydrosoluble extract of sugars of avocado (batch A) at 0.05% w/w of dry matter • IL-1β at 100 ng/ml and IL-4 at 50 ng/ml and hydrosoluble extract of sugars of avocado (batch A) at 0.05% w/w of dry matter
# At the end of the treatment, the induction of hBD-2 was evaluated by an ELISA method on cells; in parallel, in order to determine the total number of cells in each well, a test with MTT was run in parallel on the cells treated under the same conditions. Thus, for each condition, the OD450 hBD-2 was divided by the OD570 MTT to obtain the quantity of hBD-2 produced per living cell.
# LL-37 = test: Induction of LL-37 in KB epithelial cells, ELISA on cells related to MTT; format: cell-based, human; conditions: 48 hours, 100 ng/ml
# Protocol: (§1) The cells KB (ATCC CCL-17), line of epithelial cells from a human oral carcinoma, commonly used in studies of the buccal cavity, were inoculated in plaques of 96 wells and cultivated in RPMI 1640 (Roswell Park Memorial Institute Medium) with Glutamax™1 at 10% VFS (veal fœtal serum)+antibiotics.
# (§2) After 24 hours of incubation, the culture medium was eliminated and the cellular carpet was rinsed twice with PBS.
# (§3) The cells were then treated under the conditions defined above during 24 and 48 hours: • Control cells: medium only • TNFα (commercialised by Sigma) at 100 ng/ml • hydrosoluble extract of sugars of avocado (40% mannoheptulose/40% perseitol) at 0.005-0.05 and 0.5 w/w (of dry matter) (batch A) 3. End of Treatment • Analysis of the antimicrobial peptides by ELISA on cells
# (§4) After 48 hours of incubation under the different treatment conditions, the β-defensins 2 and 3 and the LL-present in the cells KB were analysed by an ELISA method on cells.
# (§5) In order to determine the total number of cells in each well, a test with MTT was run in parallel on the cells treated under the same conditions. • Utilisation of the results
# (§6) For each condition of treatment, the OD450 AMPs (antimicrobial peptides) was divided by the OD570 MTT to calculate the quantity of AMPs produced per living cell.
# (§7) The averages and the standard deviations were calculated for each condition and the induction of different AMPS was calculated as the percentage increase with respect to the control cells.
# hBD-3 = test: Induction of hBD-3 in KB epithelial cells, ELISA on cells related to MTT; format: cell-based, human; conditions: 48 hours, 100 ng/ml
# Protocol: as §1, §2, §3, §4, §5, §6, §7
# hBD-2 [3] = test: Induction of hBD-2 in KB epithelial cells, ELISA on cells related to MTT; format: cell-based, human; conditions: 48 hours, 100 ng/ml
# Protocol: as §1, §2, §3
# After 48 hours of incubation under the different treatment conditions, the β-defensins 2 and 3 and the LL-present in the cells KB were analysed by an ELISA method on cells. […]
# as §6, §7
# [4] = tested on: tumorous cells of Ehrlich ascites sarcoma; conditions: perseitol associated with a potassium ion; cited from earlier work
# [5] = Example 7, commercial origin, 0.0012%
# [6] = Example 7, commercial origin, 0.012%
molecule,measurement,setting,value
O=C(CO)[C@@H](O)[C@@H](O)[C@H](O)[C@H](O)CO [D-mannoheptulose],effect on the synthesis of HBD-2 (in words),"hBD-2 [1]; Example 6, sugars in the proportions of batch A",more active than the perseitol
same,"Average (hBD-2, same test as in example 3)",hBD-2 [1]; [5],0.089
same,"Average (hBD-2, same test as in example 3)",hBD-2 [1]; [6],0.089
same,production of hBD-2 (in words),hBD-2 [1],capable of inducing the production of hBD-2
same,Modulation of the synthesis of HBD-2 (% increase with respect to control cells),hBD-2 [1],31%
"IL-1β: positive control of induction of hBD-2, 100 ng/ml",hBD-2/MTT (single values),"hBD-2 [2]; 24 hours, IL-1β 100 ng/ml",0.291 OD and 0.308 OD and 0.347 OD
same,increase in the synthesis of hBD-2 with respect to the control cells,hBD-2 [2]; IL-1β 100 ng/ml,80%
same,"Average (hBD-2, same test as in example 3)","hBD-2 [1]; Example 7, positive control",0.104
same,% increase vs. control,"hBD-2 [1]; keratinocytes, 24 h, 100 ng/ml",128%
same,hBD-2/MTT (single values),"hBD-2 [1]; keratinocytes, 24 h, 100 ng/ml",0.223 OD and 0.324 OD and 0.273 OD and 0.322 OD
TNFα,Induction of LL-37 % increase,LL-37,88%
same,OD LL-37/OD MTT (wells),LL-37,0.080 and 0.072 and 0.077 and 0.091 and 0.082 and 0.076
same,OD LL-37/OD MTT average,LL-37,0.080
same,Induction of HBD-3 % increase,hBD-3,30%
same,OD hBD3/OD MTT (wells),hBD-3,0.431 and 0.448 and 0.399 and 0.407 and 0.374
same,OD hBD3/OD MTT average,hBD-3,0.410
same,Induction of HBD-2 % increase,hBD-2 [3],239%
same,OD hBD2/OD MTT average,hBD-2 [3],0.037
"IL-4: interleukine-4, mediator of atopy, 50 ng/ml",hBD-2/MTT (single values),"hBD-2 [2]; 24 hours, IL-4 50 ng/ml",0.160 OD and 0.158 OD and 0.163 OD
same,hBD-2/MTT Average,"hBD-2 [2]; 24 hours, IL-4 50 ng/ml",0.160 +/− 0.002 OD
same,inhibition of the synthesis of hBD-2 induced by IL-1β,hBD-2 [2]; IL-4 50 ng/ml with IL-1β 100 ng/ml,32%
same,influence on the quantity of hBD-2 expressed by the keratinocytes (in words),"hBD-2 [2]; IL-4 alone, 50 ng/ml",no influence
OCC(O)C(O)C(O)C(O)C(O)CO (stereo not drawn) [Perseitol],"Average (hBD-2, same test as in example 3)",hBD-2 [1]; [5],0.063
same,"Average (hBD-2, same test as in example 3)",hBD-2 [1]; [6],0.090
same,production of hBD-2 (in words),hBD-2 [1],capable of inducing the production of hBD-2
same,Modulation of the synthesis of HBD-2 (% increase with respect to control cells),hBD-2 [1],12%
same,incorporation of leucine-3H into tumorous cells (in words),[4],enables leucine-3H to be incorporated
